Source: patent publication US7595313B2, “Nitric oxide donating diuretic compounds, compositions and methods of use” (NicOx, S.A., priority 2005, dated 2009)
Marks after values point to notes of the source that are not given here.

Tests used:
Male Wistar rats = assay: Determination of the diuresis (urine volume over 6 hours after oral dosing); type: in vivo, rat
In short: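 Male Wistar rats (180-200 g) in metabolic cages, fasted 18 h, water withdrawn 90 min before dosing. Compounds in 0.5% Methocel given p.o. at 30 or 3 mg/kg; urine volume collected over 6 h. Mean ±SEM, n=6 or 7.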

[1] = tested on: isolated rat aorta precontracted with phenylephrine; assay: In vitro relaxant effect in rat aorta
Method: The ability of Example 46b to relax isolated rat aorta precontracted with phenylephrine (1 μM) was studied. Example 46b was an efficacious relaxant agent in the rat aorta with an EC50 value of ˜7 μM. The vasorelaxant response elicited by Example 46b was abolished in the presence of ODQ, a potent and selective inhibitor of nitric oxide (NO)-sensitive guanylyl cyclase.

plasma aldosterone = assay: Rat aldosterone inhibition under in vivo conditions (chronic administration via mini-osmotic pumps); conditions: for ALDOSTERONE (pg/ml) DAY 0: Day 0 tail vein blood sample; for ALDOSTERONE (pg/ml) DAY 0 / ALDOSTERONE (pg/ml) Day 29: male Wistar rats, N=8; for ALDOSTERONE (pg/ml) Day 29: terminal plasma day 29 after 28 days s.c. mini-pump, 10 mg/kg/day molar equivalent doses
Method: (§1) The effect of chronic administration of Example 51 and hydrochlorothiazide (HCT) on plasma aldosterone and renin levels was tested in male Wistar rats. Compounds were administered via mini-osmotic pumps implanted subcutaneously in the scapular area of the rats using asceptic techniques. Molar equivalent doses of HCT and Example 51 (10 mg/kg/day) in 50% DMSO/PEG300 were delivered for 28 days via Alzet mini-pumps and compared to vehicle treated animals. A 250 μl blood sample was obtained from tail vein cannulae for analysis of aldosterone and plasma renin levels (Day 0). Terminal plasma was collected on day 29 for analysis of aldosterone and plasma renin levels. Plasma renin and aldosterone were measured utilizing commercially available kits (Cayman Chemical; Ann Arbor, Mich. and Alpha Diagnostics; San Antonio, Tex., respectively).

plasma renin = assay: Rat renin inhibition under in vivo conditions (chronic administration via mini-osmotic pumps); conditions: for RENIN (Relative Units) DAY 0: Day 0 tail vein blood sample; for RENIN (Relative Units) DAY 0 / RENIN (Relative Units) Day 29: male Wistar rats, N=8; for RENIN (Relative Units) Day 29: terminal plasma day 29 after 28 days s.c. mini-pump, 10 mg/kg/day molar equivalent doses
Method: as §1

[2] = p.o. 3 mg/kg in 0.5% Methocel, male Wistar rats, 6 hours, mean ± SEM, n=6 or 7
[3] = day 29, 10 mg/kg/day for 28 days, result in words
[4] = p.o. 3 mg/kg in 0.5% Methocel, male Wistar rats, 6 hours, mean ± SEM, n=6 or 7, 3 mg/kg

Structure (SMILES) | melting point | Urine collected in 6 hours (mL) (3 mg/kg) (Male Wistar rats; [2]) | Urine collected in 6 hours (mL) (3 mg/kg) (Male Wistar rats; rat, in vivo, po) | further results
NS(=O)(=O)c1cc2c(cc1Cl)NCN(CCCCCO[N+](=O)[O-])S2(=O)=O [Example 46b, 2H-1,2,4-Benzothiadiazine-7-sulfonamide, 6-chloro-3,4-dihydro-2-[5-(nitrooxy)pentyl]-, 1,1-dioxide] | 120 to 123 °C | 7.3 ± 0.7 mL | – | vasorelaxant response in the presence of ODQ ([1]; ODQ, inhibitor of NO-sensitive guanylyl cyclase, rat aorta precontracted with phenylephrine (1 μM)): abolished; EC50 ([1]; Rattus norvegicus, aortic rings precontracted with phenylephrine (1 μM), relaxation as % of maximum by papaverine): ~7 µM
NS(=O)(=O)c1cc2c(cc1Cl)NCN(CCO[N+](=O)[O-])S2(=O)=O [Example 51, 2H-1,2,4-Benzothiadiazine-7-sulfonamide, 6-chloro-3,4-dihydro-2-[2-(nitrooxy)ethyl]-, 1,1-dioxide] | 161 to 163 °C (dec.) | 8.0 ± 1.1 mL | – | ALDOSTERONE (pg/ml) DAY 0 (plasma aldosterone): 540.8 ± 38.9 pg/mL; plasma aldosterone measured on day 29 as compared to vehicle or HCT treated rats (plasma aldosterone; [3]): significantly lowered; ALDOSTERONE (pg/ml) Day 29 (plasma aldosterone): 1326.6 ± 118.7^c pg/ml; RENIN (Relative Units) DAY 0 (plasma renin): 6.1 ± 0.3 Relative Units; plasma renin measured on day 29 as compared to vehicle or HCT treated rats (plasma renin; [3]): significantly lowered; RENIN (Relative Units) Day 29 (plasma renin): 9.5 ± 0.5^a,b Relative Units
NS(=O)(=O)c1cc2c(cc1Cl)N([N+](=O)[O-])CN(CCO[N+](=O)[O-])S2(=O)=O [Example 52, 2H-1,2,4-Benzothiadiazine-7-sulfonamide, 6-chloro-3,4-dihydro-4-nitro-2-[2-(nitrooxy)ethyl]-, 1,1-dioxide] | 144 °C (dec.) | – | 5.7 ± 0.8 mL | –
NS(=O)(=O)c1cc2c(cc1Cl)NCN(CCCC(=O)O)S2(=O)=O [Example 53c, 2H-1,2,4-Benzothiadiazine-2-butanoic acid, 7-(aminosulfonyl)-6-chloro-3,4-dihydro-, 1,1-dioxide] | 72 to 78 °C | 3.7 ± 0.4 mL | – | –
NS(=O)(=O)c1cc2c(cc1C(F)(F)F)NC(c1cc(CO[N+](=O)[O-])cc(CO[N+](=O)[O-])c1)NS2(=O)=O (centres unmarked) [Example 55, 2H-1,2,4-Benzothiadiazine-7-sulfonamide, 3-[3,5-bis[(nitrooxy)methyl]phenyl]-3,4-dihydro-6-(trifluoromethyl)-, 1,1-dioxide] | > 113 °C (dec.) | – | 3.3 ± 0.4 mL | –
NS(=O)(=O)c1cc2c(cc1Cl)NC(CNC(=O)CN(CCO[N+](=O)[O-])CCO[N+](=O)[O-])NS2(=O)=O (centres unmarked) [Example 57c, Acetamide, N-[[7-(aminosulfonyl)-6-chloro-3,4-dihydro-1,1-dioxido-2H-1,2,4-benzothiadiazin-3-yl]methyl]-2-[bis[2-(nitrooxy)ethyl]amino]-] | 118 °C (dec.) | – | 3.6 ± 0.6 mL | –
NS(=O)(=O)c1cc2c(cc1Cl)NCN(CCCCCCO[N+](=O)[O-])S2(=O)=O [Example 58b, 2H-1,2,4-Benzothiadiazine-7-sulfonamide, 6-chloro-3,4-dihydro-2-[6-(nitrooxy)hexyl]-, 1,1-dioxide] | 158 to 160 °C | 6.3 ± 0.2 mL | – | –
NS(=O)(=O)c1cc2c(cc1Cl)NCN(CCCO)S2(=O)=O [Example 59, 2H-1,2,4-Benzothiadiazine-7-sulfonamide, 6-chloro-3,4-dihydro-2-(3-hydroxypropyl)-, 1,1-dioxide] | 160 °C | 6.7 ± 0.6 mL | – | –
CN(CC1Nc2cc(Cl)c(S(N)(=O)=O)cc2S(=O)(=O)N1)C(=O)c1cc(CO[N+](=O)[O-])cc(CO[N+](=O)[O-])c1 (centres unmarked) [Example 65d, (5-{[{[7-(Aminosulfonyl)-6-chloro-1,1-dioxido-3,4-dihydro-2H-1,2,4-benzothiadiazin-3-yl]methyl}(methyl)amino]carbonyl}-1,3-phenylene)bis(methylene)dinitrate] | 137 °C (dec.) | – | 4.6 ± 0.3 mL | –
NS(=O)(=O)c1cc2c(cc1Cl)NCN(C/C=C/CO[N+](=O)[O-])S2(=O)=O [Example 67b, 2H-1,2,4-Benzothiadiazine-7-sulfonamide, 6-chloro-3,4-dihydro-2-[(2E)-4-(nitrooxy)-2-butenyl]-, 1,1-dioxide] | 160 to 162 °C (dec.) | 6.7 ± 0.6 mL | – | –
NS(=O)(=O)c1cc2c(cc1Cl)NCN(CCCCOc1cc(CO[N+](=O)[O-])cc(CO[N+](=O)[O-])c1)S2(=O)=O [Example 69b, 2H-1,2,4-Benzothiadiazine-7-sulfonamide, 2-[4-[3,5-bis[(nitrooxy)methyl]phenoxy]butyl]-6-chloro-3,4-dihydro-, 1,1-dioxide] | 65 to 67 °C | – | 2.5 ± 0.5 mL | –
NS(=O)(=O)c1cc2c(cc1Cl)NCN(CCCOc1cc(CO[N+](=O)[O-])cc(CO[N+](=O)[O-])c1)S2(=O)=O [Example 70c, 2H-1,2,4-Benzothiadiazine-7-sulfonamide, 2-[3-[3,5-bis[(nitrooxy)methyl]phenoxy]propyl]-6-chloro-3,4-dihydro-, 1,1-dioxide] | 70 to 72 °C | – | 3.3 ± 0.4 mL | –
NS(=O)(=O)c1cc2c(cc1Cl)NCN(CCOc1cc(CO[N+](=O)[O-])cc(CO[N+](=O)[O-])c1)S2(=O)=O [Example 71c, 2H-1,2,4-Benzothiadiazine-7-sulfonamide, 2-[2-[3,5-bis[(nitrooxy)methyl]phenoxy]ethyl]-6-chloro-3,4-dihydro-, 1,1-dioxide] | 72 to 75 °C | – | 1.3 ± 0.6 mL | –
NS(=O)(=O)c1cc2c(cc1Cl)NCN(CC(=O)N(CCCO[N+](=O)[O-])CCCO[N+](=O)[O-])S2(=O)=O [Example 72b, 2H-1,2,4-Benzothiadiazine-2-acetamide, 7-(aminosulfonyl)-6-chloro-3,4-dihydro-N,N-bis[3-(nitrooxy)propyl]-, 1,1-dioxide] | 157 to 160 °C | – | 1.8 ± 0.2 mL | –
NS(=O)(=O)c1cc2c(cc1Cl)NCN(CC[C@H](CO[N+](=O)[O-])O[N+](=O)[O-])S2(=O)=O [Example 73b, 2H-1,2,4-Benzothiadiazine-7-sulfonamide, 2-[(3R)-3,4-bis(nitrooxy)butyl]-6-chloro-3,4-dihydro-, 1,1-dioxide] | 158 to 162 °C | – | 3.8 ± 0.5 mL | –
CC1(C)CC(CC2Nc3cc(Cl)c(S(N)(=O)=O)cc3S(=O)(=O)N2)CC(C)(C)N1O (centres unmarked) [Example 76b, 1-Piperidinyloxy, 4-[[7-(aminosulfonyl)-6-chloro-3,4-dihydro-1,1-dioxido-2H-1,2,4-benzothiadiazin-3-yl]methyl]-2,2,6,6-tetramethyl-] | 238 to 240 °C | – | – | Urine collected in 6 hours (mL) (3 mg/kg) (Male Wistar rats; [4]): 2.2 ± 0.4 mL
CC1(C)CC(CC2Nc3cc(Cl)c(S(N)(=O)=O)cc3S(=O)(=O)N2)CC(C)(C)N1O (centres unmarked) [Example 77, 2H-1,2,4-Benzothiadiazine-7-sulfonamide, 6-chloro-3,4-dihydro-3-[(1-hydroxy-2,2,6,6-tetramethyl-4-piperidinyl)methyl]-, 1,1-dioxide] | 174 to 176 °C | – | – | Urine collected in 6 hours (mL) (3 mg/kg) (Male Wistar rats; [4]): 2.3 ± 0.4 mL
NS(=O)(=O)c1cc2c(cc1Cl)NCN(C(CO)CO)S2(=O)=O [Example 78b, 2H-1,2,4-Benzothiadiazine-7-sulfonamide, 6-chloro-3,4-dihydro-2-[2-hydroxy-1-(hydroxymethyl)ethyl]-, 1,1-dioxide] | 139 to 143 °C | 2.7 ± 0.8 mL | – | –
NS(=O)(=O)c1cc2c(cc1Cl)NC(CCc1cc(CO[N+](=O)[O-])cc(CO[N+](=O)[O-])c1)NS2(=O)=O (centres unmarked) [Example 80b, 2H-1,2,4-Benzothiadiazine-7-sulfonamide, 3-[2-[3,5-bis[(nitrooxy)methyl]phenyl]ethyl]-6-chloro-3,4-dihydro-, 1,1-dioxide] | 101 to 104 °C | – | 3.9 ± 0.5 mL | –
NS(=O)(=O)c1cc2c(cc1Cl)NCNS2(=O)=O [HCT, hydrochlorothiazide, reference compound] | – | – | – | ALDOSTERONE (pg/ml) DAY 0 (plasma aldosterone): 411.5 ± 41.8 pg/mL; ALDOSTERONE (pg/ml) Day 29 (plasma aldosterone): 2081.0 ± 232.1 pg/mL; RENIN (Relative Units) DAY 0 (plasma renin): 5.0 ± 0.6 Relative Units; RENIN (Relative Units) Day 29 (plasma renin): 24.6 ± 1.0 Relative Units
